Experimental data published in patent US3989701A, “Diamine-benzophenones and a process for the preparation thereof” (Richter Gedeon Vegyeszeti Gyar Rt., priority 1973, dated 1976).

Assays:
[1] = Rotarod / ataxis and reflex retardation
[2] = Harmful effects on the kidneys; format: in vivo; details: in words, compared with phenacetine
[3] = Antipyretic effect (yeast- and pyragro-treated rats, rectal temperature); format: in vivo, male rats; details: Dosage 40 mg./kg. orally; rectal temperature recorded for 5 hours
Experimental: To test the antipyretic effect, a 15% yeast suspension was administered to male rats each weighing 180 ±10 g. No food was given to the animals, they could consume, however, arbitrary amount of water. 16 hours after the administration of yeast the rectal temperature of the animals was taken, and the animals were treated with pyragro in an intravenous dosage of 50 M bact./animal. The compound to be tested was administered orally into the animals, thereafter the change in rectal temperature both for the treated and the control animals was recorded for 5 hours, using an "Elab" type electrothermometer. Phenacetine, used as reference substance, and the compounds of the invention were administered in dosages of 40 mg./kg. body weight.

LD50 (acute toxicity) = details: in vivo, po
liver microsomal enzymes = assay: Enzyme inductive effect (shortening of duration of sleeping after hexobarbital); format: in vivo, Wistar female rats; details: for Average duration of sleeping ± S.E.: Dosage 60 mg./kg. p.o., hexobarbital 40 mg./kg. i.v. 24 hours later, control 27.4 ± 3.02
Experimental: To investigate the enzyme inductive effect, Wistar female rats, each weighing 40 to 50 g. were treated with pure solvent, or with a dosage of 60 mg./kg. of phenobarbital or the compound to be tested, respectively. 24 hours after this treatment 40 mg./kg. of hexobarbital were administered intravenously into the animals. The decrease of the elimination period and the liver enzyme induction was expressed as the shortening of duration of sleeping.

[4] = Effect on the central nervous system; format: in vivo; details: in words
yohimbine lethality = assay: Potentiation of yohimbine lethality; format: in vivo, CFLP male mice
Experimental: To investigate the yohimbine-potentiating effect, CFLP male mice each weighing 20 to 25 g. were treated orally with the compounds according to the invention, and 1 hour after this treatment yohimbine was injected subcutaneously into the animals in a dosage of 20 mg./kg.

Row | SMILES | LD50 (LD50 (acute toxicity)) | Average duration of sleeping ± S.E. (liver microsomal enzymes) | further results
1 | CN(C)CCCN1c2ccccc2CCc2ccccc21 [Imipramine, 5-(3-dimethylaminopropyl)-10,11-dihydro-5H-dibenz(b,f)azepin, reference compound] | – | – | TD50 ([1]; rotarod): 28 mg/kg
2 | Nc1cc(C(=O)c2ccccc2)ccc1N1CCOCC1 [C8, 3-amino-4-morpholino-benzophenone] | > 3000 mg/kg | – | harmful effects on the kidneys [2]: no harmful effects on the kidneys; Decrease of temperature [3]: -1.0 °C
3 | CCCCCCCCCCCCCCCC(=O)Nc1cc(C(=O)c2ccccc2)ccc1N1CCOCC1 [C12, 3-palmitoylamino-4-morpholino-benzophenone] | > 500 mg/kg | 10.4 ± 1.02 min | –
4 | CCC1(c2ccccc2)C(=O)NC(=O)NC1=O [Phenobarbital, reference compound] | 240 mg/kg | 5.4 ± 1.63 min | –
5 | CC(C)CN(CC(C)C)c1ccc(C(=O)c2ccccc2)cc1N [C7, 3-amino-4-(N,N-diisobutylamino)-benzophenone] | > 600 mg/kg | 10.0 ± 1.92 min | –
6 | CCN(c1ccccc1)c1ccc(C(=O)c2ccccc2)cc1N [C6, 3-amino-4-(N-ethyl-N-phenylamino)-benzophenone] | > 400 mg/kg | 11.6 ± 2.71 min | –
7 | CCC(=O)Nc1cc(C(=O)c2ccccc2)ccc1N1CCOCC1.Cl [C11, 3-propionylamino-4-morpholino-benzophenone HCl] | > 450 mg/kg | 9.0 ± 1.30 min | enzyme-inducing effect (in words) (liver microsomal enzymes; compared with phenobarbital where stated): the same in strength as for phenobarbital; effect on the central nervous system [4]: no effect on the central nervous system
8 | CCOc1ccc(NC(C)=O)cc1 [Phenacetine, reference compound] | 2400 mg/kg | – | Decrease of temperature [3]: -1.0 °C
9 | CN1CCN(c2ccc(C(=O)c3ccccc3)cc2N)CC1 [C3, 3-amino-4-(N-methyl-piperazino)-benzophenone] | > 3000 mg/kg | – | ataxis or reflex retardation ([1]; in the active dosage): causes no ataxis or reflex retardation; TD50 (in vivo): 160 mg/kg; ED50 (yohimbine lethality; Mus musculus, sc, yohimbine 20 mg./kg. s.c. 1 hour after treatment, deaths counted at 24 hours, probit analysis): 30 mg/kg; antidepressant activity / yohimbine lethality increasing effect (in words) (yohimbine lethality; compared with imipramine where stated): inferior in antidepressant activity to imipramine
